Source: patent US8524750B2, “(Pyrazol-3-yl)-1,3,4-thiadiazol-2-amine and (pyrazol-3-yl)-1,3,4-thiazol-2-amine compounds” (Glaxo Group Limited, priority 2009, dated 2013)
Converted amounts (≈) assume the structure as drawn. Where two headings read alike, the source gives them in different places.

How the values were obtained:
[1] = target: T1, Mycobacterium tuberculosis InhA (Mycobacterium tuberculosis, UniProt P9WGR1); assay: Mycobacterium tuberculosis InhA Inhibition Assay (Enzyme Assay); type: biochemical; conditions: 5 nM InhA, 50 μM DDCoA, 50 μM NADH, PIPES buffer pH 6.8, initial velocities of NADH consumption
T1 construct: made in house; host or cells: E. coli
Procedure: Mycobacterium tuberculosis InhA Inhibition Assay (Enzyme Assay)
InhA is able to reduce 2-trans enoyl-CoA esters with concomitant oxidation of NADH to NAD^+. The assay format is based on the kinetic detection of NADH consumption.
Assay for InhA inhibition is carried out with mycobacterium recombinant protein expressed and purified form E. coli. Standard assay conditions for the determination of kinetic constants and inhibitors activity use 5 nM of InhA, 50 μM of Dodecenoyl-CoA synthesized and purified as described by Quernard et al (DDCoA) and 50 μM of NADH as substrates, and it is carried out in 30 mM PIPES buffer pH 6.8, containing 0.05% of BSA. […] Triclosan is used as positive control in every experiment. One μl of compounds is added to the wells containing 25 μl of the DDCoA+NADH mix, the reaction is started by adding 50 μl of the enzyme solution. Fluorescence from NADH is followed at room temperature during 20 minutes in a fluorescent plate reader (excitation at 340 nm; emission at 480 nm). IC50 values are determined using initial velocities of NADH consumption.
Quernard A, Sacchettini J C, Dessen A, et al. Enzymatic characterization of the target for isoniazid in Mycobacterium tuberculosis. Biochemistry 1995; 34:8235-41.

[2] = tested on: Mycobacterium tuberculosis H37Rv; assay: Mycobacterium tuberculosis H37Rv Inhibition Assay (Whole Cell Assay); type: cell-based; conditions: ATCC 25618 / H37Rv, H37Rv strain (ATCC25618), Middlebrook 7H9, six days at 37° C., resazurin fluorescence after 48 hours

T1 sequence (P9WGR1 whole entry, looked up): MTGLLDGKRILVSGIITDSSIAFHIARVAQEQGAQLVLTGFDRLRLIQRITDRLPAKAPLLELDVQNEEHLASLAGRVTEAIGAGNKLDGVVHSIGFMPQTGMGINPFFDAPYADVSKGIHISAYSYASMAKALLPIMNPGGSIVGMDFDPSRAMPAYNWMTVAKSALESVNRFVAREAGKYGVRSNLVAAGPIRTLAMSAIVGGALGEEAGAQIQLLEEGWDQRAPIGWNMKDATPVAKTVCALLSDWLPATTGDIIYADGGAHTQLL

Compound	IC50 ([1]; read-out: IC50 value) [nM]	MIC [2] [µM]	IC50 ([1]; IC50 value) [nM]
CC(c1nc(C(F)(F)F)cs1)c1nnc(Nc2ccn(Cc3c(F)cccc3Cl)n2)s1 (centres unmarked) [Example 31, N-{1-[(2-chloro-6-fluorophenyl)methyl]-1H-pyrazol-3-yl}-5-{1-[4-(trifluoromethyl)-1,3-thiazol-2-yl]ethyl}-1,3,4-thiadiazol-2-amine]	< 102	> 10	
Cc1cc(C)n([C@@H](C)c2nnc(Nc3ccn(Cc4c(F)cccc4Cl)n3)s2)n1 (single isomer, unassigned) [Example 69]	< 116	1 to 4 (≈ 0.432 to 1.73 µg/mL)	
Cc1cc(C)n(C(C)c2nnc(Nc3cc(C)n(Cc4c(F)cccc4Cl)n3)s2)n1 (centres unmarked) [Example 19, N-{1-[(2-chloro-6-fluorophenyl)methyl]-5-methyl-1H-pyrazol-3-yl}-5-[1-(3,5-dimethyl-1H-pyrazol-1-yl)ethyl]-1,3,4-thiadiazol-2-amine]	< 112	1 to 4 (≈ 0.446 to 1.78 µg/mL)	
O=[N+]([O-])c1ccn(Cc2nnc(Nc3ccn(Cc4c(Cl)cccc4Cl)n3)s2)n1 [Example 47, N-{1-[(2,6-dichlorophenyl)methyl]-1H-pyrazol-3-yl}-5-[(3-nitro-1H-pyrazol-1-yl)methyl]-1,3,4-thiadiazol-2-amine]		> 10	< 111
Cc1cc(C)n(C(C)c2nnc(Nc3ccn(Cc4ccc(C(F)(F)F)cc4)n3)s2)n1 (centres unmarked) [Example 35, 5-[1-(3,5-dimethyl-1H-pyrazol-1-yl)ethyl]-N-(1-{[4-(trifluoromethyl)phenyl]methyl}-1H-pyrazol-3-yl)-1,3,4-thiadiazol-2-amine]		> 10	223 to 1120
Cc1cc(C)n(C(C)c2nnc(Nc3ccn(Cc4cc(F)ccc4Cl)n3)s2)n1 (centres unmarked) [Example 36, N-{1-[(2-chloro-5-fluorophenyl)methyl]-1H-pyrazol-3-yl}-5-[1-(3,5-dimethyl-1H-pyrazol-1-yl)ethyl]-1,3,4-thiadiazol-2-amine]	< 116	4 to 10 (≈ 1.73 to 4.32 µg/mL)	
Cc1ccn(C(C)c2nnc(Nc3ccn(Cc4c(Cl)cccc4Cl)n3)s2)n1 (centres unmarked) [Example 54, N-{1-[(2,6-dichlorophenyl)methyl]-1H-pyrazol-3-yl}-5-[1-(3-methyl-1H-pyrazol-1-yl)ethyl]-1,3,4-thiadiazol-2-amine]	< 115	1 to 4 (≈ 0.434 to 1.74 µg/mL)	
FC(F)(F)c1ccn(Cc2nnc(Nc3ccn(Cc4ccccc4Cl)n3)s2)n1 [Example 59, N-{1-[(2-chlorophenyl)methyl]-1H-pyrazol-3-yl}-5-{[3-(trifluoromethyl)-1H-pyrazol-1-yl]methyl}-1,3,4-thiadiazol-2-amine]	227 to 1140	> 10	
Cc1csc(C(C)(O)c2nnc(Nc3ccn(Cc4c(F)cccc4F)n3)s2)n1 (racemic) [Example 78, 1-[5-({1-[(2,6-difluorophenyl)methyl]-1H-pyrazol-3-yl}amino)-1,3,4-thiadiazol-2-yl]-1-(4-methyl-1,3-thiazol-2-yl)ethanol]		≤ 1	< 115
Cc1cc(C)n(C(C)c2nnc(Nc3ccn(Cc4ccc(F)cc4)n3)s2)n1 (centres unmarked) [Example 75, 5-[1-(3,5-dimethyl-1H-pyrazol-1-yl)ethyl]-N-{1-[(4-fluorophenyl)methyl]-1H-pyrazol-3-yl}-1,3,4-thiadiazol-2-amine]		> 10	126 to 252
Cc1ccn(C(C)c2nnc(Nc3ccn(Cc4ccc(F)cc4Cl)n3)s2)n1 (centres unmarked) [Example 18, N-{1-[(2-chloro-4-fluorophenyl)methyl]-1H-pyrazol-3-yl}-5-[1-(3-methyl-1H-pyrazol-1-yl)ethyl]-1,3,4-thiadiazol-2-amine]		> 10	120 to 239
Cc1csc(C(C)(O)c2nnc(Nc3ccn(Cc4cccc(F)c4F)n3)s2)n1 (centres unmarked) [Example 80, 1-[5-({1-[(2,3-difluorophenyl)methyl]-1H-pyrazol-3-yl}amino)-1,3,4-thiadiazol-2-yl]-1-(4-methyl-1,3-thiazol-2-yl)ethanol]		≤ 1	< 115
Cc1cc(C)n(C(C)c2nnc(Nc3ccn(Cc4c(F)ccc(N)c4F)n3)s2)n1 (centres unmarked) [Example 87, N-{1-[(3-amino-2,6-difluorophenyl)methyl]-1H-pyrazol-3-yl}-5-[1-(3,5-dimethyl-1H-pyrazol-1-yl)ethyl]-1,3,4-thiadiazol-2-amine]		1 to 4 (≈ 0.43 to 1.72 µg/mL)	< 116
O=[N+]([O-])c1ccn(Cc2nnc(Nc3ccn(Cc4c(F)cccc4Cl)n3)s2)n1 [Example 52, N-{1-[(2-chloro-6-fluorophenyl)methyl]-1H-pyrazol-3-yl}-5-[(3-nitro-1H-pyrazol-1-yl)methyl]-1,3,4-thiadiazol-2-amine]		> 10	115 to 230
Cc1cc(C)n(Cc2nnc(Nc3ccn(Cc4ccccc4)n3)s2)n1 [Example 64, 5-[(3,5-dimethyl-1H-pyrazol-1-yl)methyl]-N-[1-(phenylmethyl)-1H-pyrazol-3-yl]-1,3,4-thiadiazol-2-amine]	274 to 1370	> 10	
Cc1csc(C(C)c2nnc(Nc3ccn(Cc4c(F)cccc4Cl)n3)s2)n1 (centres unmarked) [Example 29, N-{1-[(2-chloro-6-fluorophenyl)methyl]-1H-pyrazol-3-yl}-5-[1-(4-methyl-1,3-thiazol-2-yl)ethyl]-1,3,4-thiadiazol-2-amine]	< 115	1 to 4 (≈ 0.435 to 1.74 µg/mL)	
FC(F)(F)c1ccn(Cc2nnc(Nc3ccn(Cc4ccccc4)n3)s2)n1 [Example 61, N-[1-(phenylmethyl)-1H-pyrazol-3-yl]-5-{[3-(trifluoromethyl)-1H-pyrazol-1-yl]methyl}-1,3,4-thiadiazol-2-amine]	247 to 1230	> 10	
Cc1ccn(C(C)c2nnc(Nc3ccn(Cc4cc(Cl)ccc4Cl)n3)s2)n1 (centres unmarked) [Example 4, N-{1-[(2,5-dichlorophenyl)methyl]-1H-pyrazol-3-yl}-5-[1-(3-methyl-1H-pyrazol-1-yl)ethyl]-1,3,4-thiadiazol-2-amine]	< 115	4 to 10 (≈ 1.74 to 4.34 µg/mL)	
Cc1cc(C)n(Cc2cnc(Nc3ccn(Cc4c(F)cccc4Cl)n3)s2)n1 [Example 37, N-{1-[(2-chloro-6-fluorophenyl)methyl]-1H-pyrazol-3-yl}-5-[(3,5-dimethyl-1H-pyrazol-1-yl)methyl]-1,3-thiazol-2-amine]	< 120	4 to 10 (≈ 1.67 to 4.17 µg/mL)	
Cc1cc(C)n(C(C)c2nnc(Nc3ccn(Cc4c(F)ccc(C)c4Cl)n3)s2)n1 (centres unmarked) [Example 23, N-{1-[(2-chloro-6-fluoro-3-methylphenyl)methyl]-1H-pyrazol-3-yl}-5-[1-(3,5-dimethyl-1H-pyrazol-1-yl)ethyl]-1,3,4-thiadiazol-2-amine]	< 112	≤ 1	
Fc1cccc(Cl)c1Cn1ccc(Nc2nnc(Cn3ccc(C(F)(F)F)n3)s2)n1 [Example 63, N-{1-[(2-chloro-6-fluorophenyl)methyl]-1H-pyrazol-3-yl}-5-{[3-(trifluoromethyl)-1H-pyrazol-1-yl]methyl}-1,3,4-thiadiazol-2-amine]	218 to 1090	> 10	
Cc1csc(C(C)c2nnc(Nc3ccn(Cc4cccc(Cl)c4F)n3)s2)n1 (centres unmarked) [Example 33, N-{1-[(3-chloro-2-fluorophenyl)methyl]-1H-pyrazol-3-yl}-5-[1-(4-methyl-1,3-thiazol-2-yl)ethyl]-1,3,4-thiadiazol-2-amine]	< 115	1 to 4 (≈ 0.435 to 1.74 µg/mL)	
Cc1cc(C(F)(F)F)nn1Cc1nnc(Nc2ccn(Cc3ccccc3Cl)n2)s1 [Example 48, N-{1-[(2-chlorophenyl)methyl]-1H-pyrazol-3-yl}-5-{[5-methyl-3-(trifluoromethyl)-1H-pyrazol-1-yl]methyl}-1,3,4-thiadiazol-2-amine]		> 10	110 to 220
Cc1cc(C)n(C(C)c2nnc(Nc3ccn(Cc4ccccc4F)n3)s2)n1 (centres unmarked) [Example 6, 5-[1-(3,5-dimethyl-1H-pyrazol-1-yl)ethyl]-N-{1-[(2-fluorophenyl)methyl]-1H-pyrazol-3-yl}-1,3,4-thiadiazol-2-amine]	< 126	1 to 4 (≈ 0.397 to 1.59 µg/mL)	
Cc1csc([C@@](C)(O)c2nnc(Nc3ccn(Cc4c(F)cccc4F)n3)s2)n1 (single isomer, unassigned) [Example 90]		> 10	115 to 230
Cc1ccn(C(C)c2nnc(Nc3ccn(Cc4c(F)ccc(C)c4F)n3)s2)n1 (centres unmarked) [Example 86, N-{1-[(2,6-difluoro-3-methylphenyl)methyl]-1H-pyrazol-3-yl}-5-[1-(3-methyl-1H-pyrazol-1-yl)ethyl]-1,3,4-thiadiazol-2-amine]		≤ 1	< 120
Cc1ccn(C(C)c2nnc(Nc3ccn(Cc4cccc(Cl)c4F)n3)s2)n1 (centres unmarked) [Example 14, N-{1-[(3-chloro-2-fluorophenyl)methyl]-1H-pyrazol-3-yl}-5-[1-(3-methyl-1H-pyrazol-1-yl)ethyl]-1,3,4-thiadiazol-2-amine]	< 120	1 to 4 (≈ 0.418 to 1.67 µg/mL)	
Cc1cc(C)n(C(C)c2nnc(Nc3ccn(Cc4cccc(C)c4F)n3)s2)n1 (centres unmarked) [Example 24, 5-[1-(3,5-dimethyl-1H-pyrazol-1-yl)ethyl]-N-{1-[(2-fluoro-3-methylphenyl)methyl]-1H-pyrazol-3-yl}-1,3,4-thiadiazol-2-amine]	< 122	≤ 1	
